Experimental findings from patent publication US20160038448A1, “THE INHIBITION OF THE TOXIC EFFECTS OF ISLET AMYLOID FORMATION BY FLURBIPROFEN AND FLURBIPROFEN DERIVATIVES” (The Research Foundation for the State University of New York, priority 2013, published 2016) are described below.

One data set deals with T1, human IAPP (Homo sapiens, UniProt P10997).
T1 construct: Mature, fully processed, Amylin is 37 residues in length, contains a disulfide bond between residues 2 and 7; made in house; host or cells: chemical solid-phase peptide synthesis (Fmoc), no expression host
T1 sequence (P10997 34-70 limits assumed): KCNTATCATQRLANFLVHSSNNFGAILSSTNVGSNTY
Put plainly: Fluorescence detected thioflavin-T assay of the time course of amyloid formation. Conditions: for effect on islet amyloid formation (thioflavin-T time course): compound 20 parts, human IAPP 1 part, example in present tense. Type of data set: biochemical. The protocol: Peptides were first dissolved in 100% hexafluoroisopropanol (HFIP) at a concentration 1.6 mM and then filtered to remove any preformed amyloid aggregates. For thioflavin-T fluorescence assays, aliquots were lyophilized and redissolved in pH 7.4, 20 mM Tris-HCl buffer at the desired concentration. Aspirin and Ketoprofen were prepared in 100% dimethyl sulfoxide (DMSO).
Solutions were prepared by adding pH 7.4, 20 mM Tris buffer and thioflavin-T to lyophilized dry peptides for a final peptide concentration of […]. For the studies of Aspirin and Ketoprofen, 0.25% DMSO was present in the solution. Measurements were made at 25° C. using a Beckman Coulter DTX880 plate reader without stirring. An excitation filter of 430 nm and an emission filter of 485 nm were used. To test disaggregate activity of Aspirin, peptide was first incubated in low-binding 96-wells plate and monitored by plate reader to ensure the formation of amyloid fibrils.
A mixture of flurbiprofen (1-20 parts) and human IAPP (1 part) was monitored by fluorescence detected thioflavin-T assays. The assays monitored the time course of amyloid formation (amount vs time) in the presence and absence of flurbiprofen.
A mixture of OH-flurbiprofen and human IAPP were monitored by fluorescence detected thioflavin-T assays. Three different concentrations (1:1 ratio, 1:10 ratio and 1:20 ratio of IAPP to OH-flurbiprofen) were tested against human IAPP without any added OH-flurbiprofen. The assays monitored the time course of amyloid formation (amount vs time) in the presence and absence of a flurbiprofen derivative.
Three different mixtures of NSAIDs (20 parts) and human IAPP (1 parts) were compared to each other and human IAPP alone by fluorescence detected thioflavin-T assays. The assays monitored the time course of amyloid formation (amount vs time) in the presence and absence of aspirin, naproxen and flurbiprofen.

Another data set relates to rat INS-1 beta-cells. Put plainly: AlamarBlue cell viability of beta-cells given aliquots of the IAPP amyloid time course. Type of data set: cell-based. On the procedure:
FIG. 5. […] (A) A thioflavin-T monitored time course of amyloid formation in the presence and absence of flurbiprofen. […] 20 mM Tris-HCl buffer with 0.25% DMSO was used as the control.
The presence of toxic intermediates is reduced when amyloid formation is accelerated by use of flurbiprofen or a flurbiprofen derivative. A thioflavin-T monitored time course of amyloid formation by human IAPP was conducted in the presence and absence of flurbiprofen. Aliquots were removed at various time points and applied to rat INS-1 beta-cells; at thirty minutes, at 12 hours, at 48 hours. Cell viability as judged by AlamarBlue assays. 20 mM Tris-HCl buffer with 0.25% DMSO was used as the control.
A general note: The colour change of resazurin is a common sign of viable cells or microbes.

A further data set has as its target T2, human IAPP (amylin) (Homo sapiens, UniProt P10997).
T2 construct: Mature, fully processed, Amylin is 37 residues in length, contains a disulfide bond between residues 2 and 7; made in house; host or cells: chemical solid-phase peptide synthesis (Fmoc), no expression host
T2 sequence (P10997 34-70 limits assumed): T1 sequence (P10997 34-70 limits assumed)
Put plainly: Transmission electron microscopy of amyloid fibrils. The data set is classed as biochemical. Conditions: 20-fold excess of NSAID over human IAPP, end of kinetic experiment. The protocol: TEM was performed at the Life Science Microscopy Center at Stony Brook University. Aliquots were removed from the same solutions that were used for the fluorescence measurements. 5 μL of peptide solution was placed on carbon-coated Formvar 300 mesh copper grid for one minute and then negatively stained with saturated uranyl acetate for another one minute.

A short description of data set [1]: Parallel biophysical and cell viability experiments on h-IAPP variants. The data set is classed as cell-based. The protocol:
Parallel biophysical and cell viability experiments were conducted using a range of conditions that alter the length of the lag phase. h-IAPP amyloid kinetics are concentration-dependent. Decreasing the peptide concentration leads to an increase in the length of the lag phase, while an increase in human-IAPP concentration leads to a shortening of the lag phase. The length of the lag phase can also be controlled by altering the temperature. Lower temperatures lead to a longer lag phase; the lag phase is 2-fold longer at 15° C. […] A set of rationally designed Ser-20 mutations were used. Ser-20 is located at a critical position in the h-IAPP sequence and modulates its aggregation kinetics. […] Toxicity and kinetics experiments were performed on the Ser-20 mutants. […] An human-IAPP triple mutant, 3×L-IAPP, in which Leu replaced the three aromatic residues (Phe-15, Phe=23 and Tyr-37) was tested. This mutant forms amyloid 9-fold more slowly than wild type human IAPP (Marek at al. 2007). […] The duration of toxicity for all the mutants and for all the conditions with human IAPP wild type correlated with the length of the respective lag phases.

Setting [2] is: compound 20 parts, human IAPP 1 part, example in present tense.

“Also recorded” adds a separate entry of the source.

Consider `O=C(O)Cc1ccc(-c2ccccc2)c(F)c1` [2-(2-Fluorobiphenyl-4-yl)acetic acid, 2-(2-fluorobiphenyl-4-yl)acetic acid], for which the “effect on islet amyloid formation (thioflavin-T time course)” value (“effect on islet amyloid formation” for short) at human IAPP was “accelerates islet amyloid formation”. The “presence and toxic effects of intermediates of amyloid formation” value (“presence and toxic effects” below) in the data set with rat INS-1 beta-cells (setting [2]) was “reduces the presence and toxic effects of intermediates of amyloid formation”.

For `O=C(O)Cc1ccc(-c2ccccc2)cc1` [2-(Biphenyl-4-yl)acetic acid, 2-(biphenyl-4-yl)acetic acid], the “effect on islet amyloid formation” value on human IAPP is “accelerates islet amyloid formation”. The “presence and toxic effects” value in the data set with rat INS-1 beta-cells (setting [2]) is “reduces the presence and toxic effects of intermediates of amyloid formation”.

Turning to `C[C@H](C(=O)O)c1ccc(-c2ccccc2)cc1` [(S)-2-(Biphenyl-4-yl)propanoic acid, (S)-2-(biphenyl-4-yl)propanoic acid], at human IAPP, the “effect on islet amyloid formation” value is listed as “accelerates islet amyloid formation”. For the same compound, the “presence and toxic effects” value with rat INS-1 beta-cells (setting [2]) is “reduces the presence and toxic effects of intermediates of amyloid formation”.

On to `COc1ccc2cc([C@H](C)C(=O)O)ccc2c1` [Naproxen], for which the “inhibition of amyloid formation by human IAPP (amylin)” value at human IAPP (20 to 1 ratio of NSAID to human IAPP, pH 7.4, 25° C.) is given as “no inhibition of amyloid”. Further, the “amyloid fibrils by TEM in presence of NSAID” value on human IAPP (amylin) is reported as “no changes in amyloid formation”.

Turning to `CC(C(=O)O)c1ccc(-c2ccc(O)cc2)c(F)c1` (stereo not drawn) [OH-flurbiprofen, 2-(2-fluoro-4′-hydroxybiphenyl-4-yl) propanoic acid], the “effect on human IAPP amyloid formation (thioflavin-T time course)” value at human IAPP (20 to 1 ratio of compound to human IAPP) is “highest rate of acceleration of amyloid formation”; at human IAPP (IAPP:compound ratios 1:1 to 1:20, pH 7.4, 20 mM Tris, 25° C.) it was “accelerated islet amyloid formation; also recorded: accelerates amyloid formation by human islet amyloid polypeptide”. In the data set on rat INS-1 beta-cells (human IAPP with compound), the “presence and toxic effects” value is “reduced the presence and toxic effects of intermediates of amyloid formation in a dose dependent fashion”.

Take `CC[C@H](C)[C@H](NC(=O)[C@H](C)NC(=O)CNC(=O)[C@H](Cc1ccccc1)NC(=O)[C@H](CC(N)=O)NC(=O)[C@H](CC(N)=O)NC(=O)CNC(=O)[C@H](CO)NC(=O)[C@H](Cc1c[nH]cn1)NC(=O)[C@@H](NC(=O)[C@H](CC(C)C)NC(=O)[C@H](Cc1ccccc1)NC(=O)[C@H](CC(N)=O)NC(=O)[C@H](C)NC(=O)[C@H](CC(C)C)NC(=O)[C@H](CCCNC(=N)N)NC(=O)[C@H](CCC(N)=O)NC(=O)[C@@H](NC(=O)[C@H](C)NC(=O)[C@@H]1CSSC[C@H](NC(=O)[C@@H](N)CCCCN)C(=O)N[C@@H](CC(N)=O)C(=O)N[C@@H]([C@@H](C)O)C(=O)N[C@@H](C)C(=O)N[C@@H]([C@@H](C)O)C(=O)N1)[C@@H](C)O)C(C)C)C(=O)N[C@@H](CC(C)C)C(=O)N[C@@H](CO)C(=O)N[C@@H](CO)C(=O)N[C@H](C(=O)N[C@@H](CC(N)=O)C(=O)N[C@H](C(=O)NCC(=O)N[C@@H](CO)C(=O)N[C@@H](CC(N)=O)C(=O)N[C@H](C(=O)N[C@@H](Cc1ccc(O)cc1)C(N)=O)[C@@H](C)O)C(C)C)[C@@H](C)O` [S20G-IAPP]: the “onset and duration of toxicity relative to wild type human IAPP” value in data set [1] was “more rapid onset and shorter duration of toxicity”.
